# Measured values as given in publication PMC9204775 (ACS Chemical Neuroscience, 2022).
# Experiments:
# human (α4)3(β2)2 nAChR = human (α4)3(β2)2 nAChR (Homo sapiens, UniProt P17787+P43681); assay: Two-electrode voltage-clamp recording, (α4)3(β2)2 nAChRs expressed in Xenopus oocytes (α4:β2 cRNA 10:1); conditions: for remaining activity at 100 µM: read-out: (α4)3(β2)2 nAChR (% control response ACh)
# Method: (§2) To achieve heterologous expression of human α4β2 nAChRs in two distinct subunit stoichiometries [(α4)2(β2)3 and (α4)3(β2)2], a well-established protocol was employed in which Xenopus laevis oocytes were injected with α4 and β2 cRNA in ratios of 1:10 and 10:1, respectively.[19],[20] […] Oocytes were injected, using a Drummond variable volume microinjector, with 32.2 nL of cRNA containing either a mixture of 30 ng/μL human α4 and 300 ng/μL human β2 or 300 ng/μL human α4 and 30 ng/μL human β2 cRNAs.
# (§3) Xenopus were anesthetized by immersion in 0.2% MS222 for 15 min (or until complete anesthesia was confirmed by absence of leg-withdrawal and righting reflex), followed by cranial concussion, decapitation, and pithing. Xenopus oocytes were isolated, maintained, and injected with cRNA, as described previously.[21] […] Application of compounds was controlled by LabChart software (AD Instruments) using a BPS-8 solenoid valve solution exchange system (ALA Scientific Inc.). Typically, agonists were applied for 5 s or until a plateau in the response was observed. Antagonists were preapplied for 30 s and then coapplied with agonist for 5 s or until a plateau in the response was observed.
# (§4) For individual pairwise comparisons, statistical significance was determined using unpaired Student’s t tests or ANOVA for multiple comparisons. Dose–response curves were fitted by GraphPad Prism, using the following equation (where I is the current, Imax is the maximum current, the EC50 is the concentration of agonist that elicits a half-maximal response, and nH is the Hill coefficient): [drawing 1]
# human (α4)2(β2)3 nAChR = molecular target: T1, human (α4)2(β2)3 nAChR (Homo sapiens, UniProt P17787+P43681); assay: Two-electrode voltage-clamp recording, (α4)2(β2)3 nAChRs expressed in Xenopus oocytes (α4:β2 cRNA 1:10); assay type: cell-based; conditions: for stoichiometry selectivity of antagonism, (α4)2(β2)3 versus (α4)3(β2)2 nAChRs: 100 μM antibiotic coapplied with EC50 concentration of ACh, compared with (α4)3(β2)2; for remaining activity at 100 µM: read-out: (α4)2(β2)3 nAChR (% control response to ACh)
# T1 construct: expressed in transfected cells; host or cells: Xenopus laevis oocytes (cRNA injection)
# Method: as §2, §3, §4
# human α7 nAChRs = conditions: previous studies; cited from earlier work
# human α4β2 nAChR = molecular target: T2, human α4β2 nAChR (Homo sapiens, UniProt P17787+P43681); assay: Two-electrode voltage-clamp recording, heterologously expressed α4β2 nAChRs (stoichiometry not distinguished); assay type: cell-based; conditions: wild-type, no ACh
# T2 construct: expressed in transfected cells; host or cells: Xenopus laevis oocytes (cRNA injection)
# Method: as §2
# Xenopus oocytes were isolated, maintained, and injected with cRNA, as described previously.[21] Two-electrode voltage-clamp recordings were performed using a Warner Instruments OC-725C amplifier (Harvard Apparatus) with the oocyte membrane potential held at −60 mV, as described previously.[22] Oocytes were continuously perfused with a modified Ringer’s solution (115 mM NaCl, 2.5 mM KCl, 1.8 mM BaCl2, and 10 mM HEPES, pH 7.3). Application of compounds was controlled by LabChart software (AD Instruments) using a BPS-8 solenoid valve solution exchange system (ALA Scientific Inc.). Typically, agonists were applied for 5 s or until a plateau in the response was observed. Antagonists were preapplied for 30 s and then coapplied with agonist for 5 s or until a plateau in the response was observed.
# [1] = molecular target: α4β2 nAChRs containing mutated α4^S284A (Homo sapiens, UniProt P17787+P43681, S284A); conditions: no ACh
# Text: (§1) Human nAChR subunit cDNAs in plasmid expression vector pSP64GL (pSP64GL-α4 and pSP64GL-β2) have been described previously.[18] […] Note that the numbering of these amino acids in the human nAChR α4 and β2 subunits is based on the intact protein sequence (including the signal sequence), as indicated in the EMBL/GenBank database entries NP_000735.1 and NP_000739.1, respectively.
# [2] = molecular target: α4β2 nAChRs containing the β2^V278A subunit (Homo sapiens, UniProt P17787+P43681, V278A); conditions: no ACh
# Text: as §1
# [3] = molecular target: α4β2 nAChRs containing mutated α4^L283A (Homo sapiens, UniProt P17787+P43681, L283A); conditions: no ACh
# Text: as §1
# [4] = 100 μM antibiotic coapplied with a range of ACh concentrations
# Sequence of human (α4)3(β2)2 nAChR (P43681 27-627): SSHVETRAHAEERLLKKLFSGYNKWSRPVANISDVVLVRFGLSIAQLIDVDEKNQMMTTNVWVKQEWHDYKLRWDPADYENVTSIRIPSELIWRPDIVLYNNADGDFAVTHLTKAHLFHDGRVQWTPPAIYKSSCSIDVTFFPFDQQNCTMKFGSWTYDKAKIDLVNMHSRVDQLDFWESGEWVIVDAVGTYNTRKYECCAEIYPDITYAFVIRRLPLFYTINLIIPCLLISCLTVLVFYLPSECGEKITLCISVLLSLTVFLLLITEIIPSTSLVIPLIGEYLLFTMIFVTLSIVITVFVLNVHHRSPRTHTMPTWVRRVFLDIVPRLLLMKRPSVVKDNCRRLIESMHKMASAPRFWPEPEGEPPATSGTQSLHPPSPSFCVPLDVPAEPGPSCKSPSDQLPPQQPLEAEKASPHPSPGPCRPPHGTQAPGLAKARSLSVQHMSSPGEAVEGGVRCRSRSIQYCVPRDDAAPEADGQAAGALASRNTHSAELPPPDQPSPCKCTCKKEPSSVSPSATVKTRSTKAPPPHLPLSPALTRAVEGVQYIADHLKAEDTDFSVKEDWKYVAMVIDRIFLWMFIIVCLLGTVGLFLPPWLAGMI
# Sequence of human (α4)3(β2)2 nAChR (P17787 26-502): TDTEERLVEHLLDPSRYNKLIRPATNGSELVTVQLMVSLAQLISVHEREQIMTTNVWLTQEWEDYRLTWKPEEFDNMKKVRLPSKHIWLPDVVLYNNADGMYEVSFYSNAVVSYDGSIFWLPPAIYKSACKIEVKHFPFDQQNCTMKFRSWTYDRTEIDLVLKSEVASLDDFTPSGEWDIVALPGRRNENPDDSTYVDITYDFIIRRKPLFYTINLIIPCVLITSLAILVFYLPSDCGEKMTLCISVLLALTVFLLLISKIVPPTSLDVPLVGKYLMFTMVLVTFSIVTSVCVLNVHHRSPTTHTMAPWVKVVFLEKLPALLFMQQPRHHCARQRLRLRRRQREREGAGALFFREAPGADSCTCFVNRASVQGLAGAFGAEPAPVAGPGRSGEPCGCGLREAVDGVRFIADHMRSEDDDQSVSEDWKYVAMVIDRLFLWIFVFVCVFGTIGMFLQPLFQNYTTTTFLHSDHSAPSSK
# T1 sequence (P43681 27-627): as the sequence (P43681 27-627) above
# T1 sequence (P17787 26-502): as the sequence (P17787 26-502) above
# Sequence of α4β2 nAChRs containing mutated α4^S284A (P43681 27-627 S284A): as the sequence (P43681 27-627) above, with S258A counted along it
# Sequence of α4β2 nAChRs containing mutated α4^S284A (P17787 26-502, stated change not applied): as the sequence (P17787 26-502) above
# T2 sequence (P43681 27-627): as the sequence (P43681 27-627) above
# T2 sequence (P17787 26-502): as the sequence (P17787 26-502) above
# Sequence of α4β2 nAChRs containing the β2^V278A subunit (P43681 27-627): as the sequence (P43681 27-627) above
# Sequence of α4β2 nAChRs containing the β2^V278A subunit (P17787 26-502 V278A): as the sequence (P17787 26-502) above, with V253A counted along it
# Sequence of α4β2 nAChRs containing mutated α4^L283A (P43681 27-627 L283A): as the sequence (P43681 27-627) above, with L257A counted along it
# Sequence of α4β2 nAChRs containing mutated α4^L283A (P17787 26-502): as the sequence (P17787 26-502) above
compound,measurement,setting,value
"CC(=O)OCC[N+](C)(C)C [ACh, acetylcholine]",Hill coefficient of ACh dose-response curve,human (α4)3(β2)2 nAChR; absence of antibiotic,0.74 ± 0.
CCn1cc(C(=O)O)c(=O)c2cc(F)c(N3CCNCC3)cc21 [norfloxacin],remaining activity at 100 µM,human (α4)3(β2)2 nAChR,54.1 ± 3.4%
same,"stoichiometry selectivity of antagonism, (α4)2(β2)3 versus (α4)3(β2)2 nAChRs",human (α4)2(β2)3 nAChR,significantly greater antagonism on (α4)2(β2)3 nAChRs than on (α4)3(β2)2 nAChRs
same,remaining activity at 100 µM,human (α4)2(β2)3 nAChR,13 ± 1%
CCn1cc(C(=O)O)c(=O)c2cc(F)c(N3CCN(C)CC3)cc21 [pefloxacin],mode of action on α7 nAChR,human α7 nAChRs,noncompetitive antagonist
C[C@@H]1CN(c2c(F)c(N)c3c(=O)c(C(=O)O)cn(C4CC4)c3c2F)C[C@H](C)N1 [sparfloxacin],remaining activity at 100 µM,human (α4)3(β2)2 nAChR,58.4 ± 1.72%
same,"stoichiometry selectivity of antagonism, (α4)2(β2)3 versus (α4)3(β2)2 nAChRs",human (α4)2(β2)3 nAChR,significantly greater antagonism on (α4)2(β2)3 nAChRs than on (α4)3(β2)2 nAChRs
same,remaining activity at 100 µM,human (α4)2(β2)3 nAChR,17.4 ± 1.12%
CCn1cc(C(=O)O)c(=O)c2cc(F)c(N3CCNCC3)nc21 [enoxacin],remaining activity at 100 µM,human (α4)3(β2)2 nAChR,74.6 ± 1.88%
same,"stoichiometry selectivity of antagonism, (α4)2(β2)3 versus (α4)3(β2)2 nAChRs",human (α4)2(β2)3 nAChR,significantly greater antagonism on (α4)2(β2)3 nAChRs than on (α4)3(β2)2 nAChRs
same,remaining activity at 100 µM,human (α4)2(β2)3 nAChR,23.5 ± 1.65%
CN1CCN(c2cc3c(cc2F)c(=O)c(C(=O)O)cn3-c2ccc(F)cc2)CC1 [difloxacin],remaining activity at 100 µM,human (α4)3(β2)2 nAChR,57.2 ± 0.97%
same,"stoichiometry selectivity of antagonism, (α4)2(β2)3 versus (α4)3(β2)2 nAChRs",human (α4)2(β2)3 nAChR,significantly greater antagonism on (α4)2(β2)3 nAChRs than on (α4)3(β2)2 nAChRs
same,remaining activity at 100 µM,human (α4)2(β2)3 nAChR,39.9 ± 3.02%
CCN1CCN(c2cc3c(cc2F)c(=O)c(C(=O)O)cn3C2CC2)CC1 [enrofloxacin],remaining activity at 100 µM,human (α4)3(β2)2 nAChR,64.8 ± 1.01%
same,"stoichiometry selectivity of antagonism, (α4)2(β2)3 versus (α4)3(β2)2 nAChRs",human (α4)2(β2)3 nAChR,significantly greater antagonism on (α4)2(β2)3 nAChRs than on (α4)3(β2)2 nAChRs
same,remaining activity at 100 µM,human (α4)2(β2)3 nAChR,13.2 ± 0.46%
CCn1cc(C(=O)O)c(=O)c2cc3c(cc21)OCO3 [oxolinic acid],remaining activity at 100 µM,human (α4)3(β2)2 nAChR,60.4 ± 0.72%
same,"stoichiometry selectivity of antagonism, (α4)2(β2)3 versus (α4)3(β2)2 nAChRs",human (α4)2(β2)3 nAChR,no significant difference
same,remaining activity at 100 µM,human (α4)2(β2)3 nAChR,59.5 ± 0.99%
CCn1nc(C(=O)O)c(=O)c2cc3c(cc21)OCO3 [cinoxacin],effect when applied alone,human α4β2 nAChR,no effect
same,Hill coefficient of ACh dose-response curve in the presence of the antibiotic,human (α4)3(β2)2 nAChR; 100 μM antibiotic,0.62 ± 0.2
same,maximal normalized ACh response in the presence of the antibiotic,human (α4)3(β2)2 nAChR; [4],80.0 ± 0.9%
same,remaining activity at 100 µM,human (α4)3(β2)2 nAChR,60.4 ± 0.61%
same,effect when applied alone,[1],no effect
same,effect when applied alone,[2],no effect
same,effect when applied alone,[3],no effect
same,Hill coefficient of ACh dose-response curve in the presence of the antibiotic,human (α4)2(β2)3 nAChR; 100 μM antibiotic,1.0 ± 0.1
same,maximal normalized ACh response in the presence of the antibiotic,human (α4)2(β2)3 nAChR; [4],76.0 ± 1.5%
same,remaining activity at 100 µM,human (α4)2(β2)3 nAChR,58.2 ± 1.2%
